Earlier results, collected in patent JP2021073187A, “即効型インスリン組成物” (Eli Lilly and Co, priority 2014, dated 2021).

## インスリンリスプロ: drug substance of HUMALOG, CAS 133107-64-9; A chain SEQ ID 1, B chain SEQ ID 3 [28B−L−リジン−29B−L−プロリン ヒトインスリン]
On a molar basis
  Potency relative to human insulin: 等しい効力
Subcutaneous injection
  Effect after subcutaneous injection relative to injected soluble human insulin: 迅速で短い持続時間
